Reference: publication PMC6127322, “Novel Imidazole and Methoxybenzylamine Growth Inhibitors Affecting Salmonella Cell Envelope Integrity and its Persistence in Chickens” (Scientific Reports, 2018)
Converted amounts (≈) assume the structure as drawn. Like-named read-outs stand apart in the source and are kept apart here.

Key:
Salmonella Enteritidis = experiment: Dose-response assay (MBC) on Salmonella serovars; format: cell-based; conditions: Salmonella enterica; serovar Enteritidis, M9 broth
[1] = system: nine Salmonella serotypes; experiment: Activity spectrum and dose-response across Salmonella serotypes; format: cell-based, Salmonella enterica
Description: The 128 SMs inhibiting S. Typhimurium growth (20% or higher) were tested for their antimicrobial effect on nine different Salmonella serovars frequently implicated in foodborne gastroenteritis outbreaks. […] Both screens were performed at 200 µM as described in the primary screening. Growth conditions for each strain are described in Supplementary Table S2.
S. Typhimurium was challenged with a determined concentration of SM as described in the primary screen.

Salmonella Newport = experiment: Dose-response assay (MBC) on Salmonella serovars; format: cell-based; conditions: Salmonella enterica; serovar Newport, M9 broth
Salmonella Javiana = experiment: Dose-response assay (MBC) on Salmonella serovars; format: cell-based, Salmonella enterica
Salmonella Saint-Paul = experiment: Dose-response assay (MBC) on Salmonella serovars; format: cell-based, Salmonella enterica; conditions: serovar Saint-Paul, M9 broth
S. Typhimurium = format: cell-based, Salmonella enterica subsp. enterica serovar Typhimurium
[2] = system: S. Typhimurium LT2 wild-type (WT) strain; experiment: Dose-response assay (MIC and MBC determination) in M9 broth; format: cell-based, Salmonella enterica subsp. enterica serovar Typhimurium; conditions: 12 hrs at 37 °C, read-out: MBC (minimal bactericidal concentration)
Description: Typhimurium using high-throughput screening assay in a 96-well plate format. […] Plates were incubated in a Sunrise Tecan kinetic microplate reader for 12 hrs at 37 °C and the optical density (OD) was measured at 600 nm. The percentage of growth inhibition was calculated as: […]. Cultures from wells showing no turbidimetric increase were transferred onto a XLT4 agar plate. Plates were incubated at 37 °C for 36 hrs. […] S. Typhimurium was challenged with a determined concentration of SM as described in the primary screen.

Salmonella Heidelberg = experiment: Dose-response assay (MBC) on Salmonella serovars; format: cell-based; conditions: Salmonella enterica; serovar Heidelberg, M9 broth
[3] = system: Salmonella enterica subsp. enterica serotype Typhimurium; experiment: Checkerboard assay, SM and antibiotic combinations; format: cell-based; conditions: for MBC: Salmonella enterica, TYPHIMURIUM, antibiotic alone, M9 medium, read-out: AB MBCalone
Description: The potentiation effect of several antibiotics, commonly used to control Salmonella, was studied in a checkerboard assay. […] The MBC of each antibiotic was determined in M9 medium prior the experiment using a dose-response assay, as described above. For potentiation studies, 100 μl of a S. […] The MBC of each antibiotic was determined as described in the dose-response assay. Bacteria challenged with SMs or antibiotics alone at the same concentrations were used to determine the antibiotic-SM combination effects. […] Further, the bacterial suspension was plated on an agar medium and incubated at 37 °C for 36 hrs. The antibiotic-SM combination effect was calculated based on the determination of the fractional bactericidal concentration (FBC) as previously described[66],[67].

[4] = system: Kan^R S. Typhimurium in G. mellonella larvae; experiment: Efficacy in Salmonella-infected G. mellonella larvae; format: in vivo, Galleria mellonella; conditions: for Survival of infected larvae: three days
Description: Wax moths were selected as mentioned above. For this study, Kan^R S. Typhimurium was used for challenge. First, the virulence of Kan^R S. Typhimurium was assessed in comparison to WT parent S. Typhimurium strain in G. mellonella. Briefly, larvae (n = 20) were infected in one pro-leg with approximately 8.5 × 10^3 S. Typhimurium suspended in 10 mM MgSO4 (8,5 µl of inoculum) and incubated for three days in the dark at 37 °C in a petri dish. Survival was monitored every 12 hrs for three days. Bacterial quantification was performed once the larvae had died (dark pigmentation or no reaction to a mechanical stimulus) or after 72 hrs of incubation. Larvae were washed once with 70% ethanol, twice with sterile distilled water for 30 sec each, and transferred individually into an Eppendorf® tubes containing 1 ml of 1X PBS and homogenized. The mixture was serially diluted, plated on XLT-4 agar plate supplemented with 50 µg/ml kanamycin, and incubated for 36 hrs at 37 °C. Larvae not treated and larvae treated with the buffer mix were included as controls. The virulence of Kan^R and WT S. Typhimurium strains was assessed by comparing the larval mortality and bacterial counts.
To test the effect of SMs on S. Typhimurium in larvae, SMs and Kan^R S. Typhimurium were injected into two different pro-legs and at different time points as previously described. First, the larvae were treated with SMs, then incubated for 2 hrs at 37 °C in a petri dish, and infected with approximately 8.5 × 10^3 of Kan^R S. Typhimurium per larva. Summary of treatments are described in Supplementary Table S3. Larvae treated with 50 mg/kg chloramphenicol were used as control (lowest concentration of antibiotic allowing 100% larva survival rate; see Supplementary Fig. S3F).
34 Supplemental Table 3. SM treatment groups: wax moth study
Groups Treatment S. Typhimurium*
Negative control 30% DMSO Yes
36 At the given concentration, SMs were soluble at 30% DMSO and higher. Asterisk:
37 larvae were infected with approximately 3.5 X 104 S. Typhimurium bacteria per […]

[5] = antibiotic combined with SM1 at the concentration in the next cell
[6] = antibiotic combined with SM3 at the concentration in the next cell
[7] = antibiotic combined with SM4 at the concentration in the next cell
[8] = antibiotic combined with SM5 at the concentration in the next cell

| SMILES | MBC [2] | MBC ([3]; 12 h) | AB MBCcombined [3, 6] | AB MBCcombined [3, 7] | AB MBCcombined [3, 8] | Combination effect (FBC class) ([3]; antibiotic with SM1) | Combination effect (FBC class) ([3]; antibiotic with SM3) | Combination effect (FBC class) ([3]; antibiotic with SM4) | Combination effect (FBC class) ([3]; antibiotic with SM5) | also measured |
| --- | --- | --- | --- | --- | --- | --- | --- | --- | --- | --- |
| CN(CCO)CC(O)Cn1c2ccc(Br)cc2c2cc(Br)ccc21 (stereo not drawn) [SM2] | 100 µM (≈ 45.6 µg/mL) | – | – | – | – | – | – | – | – | MBC (Salmonella Enteritidis): 200 µM (≈ 91.2 µg/mL); Effect against the nine Salmonella serotypes ([1]; 200 µM, M9 broth): cidal; MBC ([1]; Salmonella, read-out: MBCs among the nine serotypes): 100 to 200 µM (≈ 45.6 to 91.2 µg/mL); MBC (Salmonella Newport): 200 µM (≈ 91.2 µg/mL); MBC (Salmonella Javiana): 200 µM (≈ 91.2 µg/mL); MBC (Salmonella Saint-Paul): 200 µM (≈ 91.2 µg/mL); Concentration in which resistant bacteria were able to grow (S. Typhimurium; M9 broth, 4X MBC): 400 µM; Resistance development of S. Typhimurium (S. Typhimurium; lethal dose (2X MBC) on solid medium or repeated exposure to sub-lethal dose (0.75X MBC) in liquid medium): developed resistance; MBC ([2]; Salmonella enterica): 100 µM (≈ 45.6 µg/mL); MBC (Salmonella Heidelberg): 200 µM (≈ 91.2 µg/mL) |
| COc1cccc(N=Cc2cc(Cl)cc(Cl)c2O)c1 [SM8] | 100 µM (≈ 29.6 µg/mL) | – | – | – | – | – | – | – | – | – |
| CC[C@H]1OC(=O)[C@H](C)[C@@H](O[C@H]2C[C@@](C)(OC)[C@@H](O)[C@H](C)O2)[C@H](C)[C@@H](O[C@@H]2O[C@H](C)C[C@H](N(C)C)[C@H]2O)[C@](C)(O)C[C@@H](C)C(=O)[C@H](C)[C@@H](O)[C@]1(C)O [Erythromycin] | – | 200 µg/mL | 200 µg/mL | 200 µg/mL | 200 µg/mL | c (Indifferent (FBC > 1.0 and ≤2.0; reduction in MBCs inferior to 50% for both antibiotic and SM)) | c (Indifferent (FBC > 1.0 and ≤2.0; reduction in MBCs inferior to 50% for both antibiotic and SM)) | c (Indifferent (FBC > 1.0 and ≤2.0; reduction in MBCs inferior to 50% for both antibiotic and SM)) | c (Indifferent (FBC > 1.0 and ≤2.0; reduction in MBCs inferior to 50% for both antibiotic and SM)) | AB MBCcombined [3, 5]: 200 µg/mL |
| CO/N=C(\C(=O)N[C@@H]1C(=O)N2C(C(=O)O)=C(COC(C)=O)CS[C@H]12)c1csc(N)n1 [Cefotaxime] | – | 3.2 µg/mL | 3.2 µg/mL | 3.2 µg/mL | 3.2 µg/mL | c (Indifferent (FBC > 1.0 and ≤2.0; reduction in MBCs inferior to 50% for both antibiotic and SM)) | c (Indifferent (FBC > 1.0 and ≤2.0; reduction in MBCs inferior to 50% for both antibiotic and SM)) | c (Indifferent (FBC > 1.0 and ≤2.0; reduction in MBCs inferior to 50% for both antibiotic and SM)) | c (Indifferent (FBC > 1.0 and ≤2.0; reduction in MBCs inferior to 50% for both antibiotic and SM)) | AB MBCcombined [3, 5]: 3.2 µg/mL |
| O=[N+]([O-])c1ccc(F)c(N=Cc2cc(Cl)cc(Cl)c2O)c1 [SM7] | 50 µM (≈ 16.5 µg/mL) | – | – | – | – | – | – | – | – | – |
| C[C@@H](O)[C@H]1C(=O)N2C(C(=O)O)=C(S[C@@H]3CN[C@H](C(=O)N(C)C)C3)[C@H](C)[C@H]12 [Meropenem] | – | 0.2 µg/mL | – | 0.2 µg/mL | 0.2 µg/mL | b (Additive effect (FBC > 0.5 and ≤ 1.0; percentage reduction in MBCs between 50% and 75% for both antibiotic and SM)) | c (Indifferent (FBC > 1.0 and ≤2.0; reduction in MBCs inferior to 50% for both antibiotic and SM)) | c (Indifferent (FBC > 1.0 and ≤2.0; reduction in MBCs inferior to 50% for both antibiotic and SM)) | c (Indifferent (FBC > 1.0 and ≤2.0; reduction in MBCs inferior to 50% for both antibiotic and SM)) | MBC [3]: 0.2 µg/mL |
| CCn1cc(C(=O)O)c(=O)c2ccc(C)nc21 [Nalidixic acid] | – | 16 µg/mL | 16 µg/mL | 16 µg/mL | 16 µg/mL | c (Indifferent (FBC > 1.0 and ≤2.0; reduction in MBCs inferior to 50% for both antibiotic and SM)) | c (Indifferent (FBC > 1.0 and ≤2.0; reduction in MBCs inferior to 50% for both antibiotic and SM)) | c (Indifferent (FBC > 1.0 and ≤2.0; reduction in MBCs inferior to 50% for both antibiotic and SM)) | c (Indifferent (FBC > 1.0 and ≤2.0; reduction in MBCs inferior to 50% for both antibiotic and SM)) | MBC [3]: 16 µg/mL |
| O=C(N[C@H](CO)[C@H](O)c1ccc([N+](=O)[O-])cc1)C(Cl)Cl [chloramphenicol] | – | – | – | – | – | – | – | – | – | Survival of infected larvae ([4]; 50 mg/kg): 100%; Survival of infected larvae ([4]; 50, 75, and 100 mg/kg, treated 2 hrs before infection): 100%; Lowest concentration allowing 100% larva survival rate ([4]; infected larvae): 50 mg/kg |
